Reference: ChEMBL document CHEMBL1201862, “PubChem BioAssay data set” (2004)
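Protocol summary: plate cells (96-well), add compound at 5 concentrations, incubate 48 h, interpolate endpoints linearly. Here, GI50 denotes the concentration required for 50% inhibition of growth.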 The source made the active and inactive calls. No stated cut-off is given here; in the data, active = GI50 up to about 1.1 µM and inactive = higher.

Legend:
Test in all cases: NCI-60 cell line screen, 48 h
HT-29 = test system: HT-29
MCF7 = test system: MCF7
Malme-3M = test system: Malme-3M
OVCAR-3 = test system: OVCAR-3
A498 = test system: A498
IGROV-1 = test system: IGROV-1
MOLT-4 = test system: MOLT-4
SN12C = test system: SN12C
NCI-H522 = test system: NCI-H522
HCC 2998 = test system: HCC 2998
OVCAR-4 = test system: OVCAR-4
EKVX = test system: EKVX
NCI-H23 = test system: NCI-H23
SNB-19 = test system: SNB-19
NCI/ADR-RES = test system: NCI/ADR-RES
UACC-257 = test system: UACC-257
T47D = test system: T47D
CCRF-CEM = test system: CCRF-CEM
U-251 = test system: U-251
HOP-92 = test system: HOP-92
LOX IMVI = test system: LOX IMVI
HCT-116 = test system: HCT-116
KM12 = test system: KM12
UO-31 = test system: UO-31
HCT-15 = test system: HCT-15
OVCAR-5 = test system: OVCAR-5
SK-MEL-5 = test system: SK-MEL-5
RXF 393 = test system: RXF 393
DU-145 = test system: DU-145
PC-3 = test system: PC-3
MDA-MB-435 = test system: MDA-MB-435
MDA-N = test system: MDA-N
K562 = test system: K562
SK-OV-3 = test system: SK-OV-3
NCI-H226 = test system: NCI-H226
CAKI-1 = test system: CAKI-1
TK-10 = test system: TK-10
SF-539 = test system: SF-539
SF-295 = test system: SF-295
SNB-75 = test system: SNB-75
OVCAR-8 = test system: OVCAR-8
RPMI-8226 = test system: RPMI-8226
SK-MEL-2 = test system: SK-MEL-2
M14 = test system: M14
HL-60 = test system: HL-60
786-0 = test system: 786-0
COLO 205 = test system: COLO 205
SK-MEL-28 = test system: SK-MEL-28
SW-620 = test system: SW-620
HOP-62 = test system: HOP-62
ACHN = test system: ACHN
A549 = test system: A549
MDA-MB-231 = test system: MDA-MB-231
UACC-62 = test system: UACC-62
SF-268 = test system: SF-268
NCI-H460 = test system: NCI-H460

## NCc1ccc(-c2ccc(-c3ccc(-c4ccc(CN)s4)s3)s2)s1
HT-29
  GI50: > 100 µM (inactive)
MCF7
  GI50: > 100 µM (inactive)
Malme-3M
  GI50: > 100 µM (inactive)
OVCAR-3
  GI50: > 100 µM (inactive)
A498
  GI50: > 100 µM (inactive)
IGROV-1
  GI50: > 100 µM (inactive)
MOLT-4
  GI50: > 100 µM (inactive)
SN12C
  GI50: > 100 µM (inactive)
NCI-H522
  GI50: > 100 µM (inactive)
HCC 2998
  GI50: > 100 µM (inactive)
OVCAR-4
  GI50: > 100 µM (inactive)
EKVX
  GI50: > 100 µM (inactive)
NCI-H23
  GI50: > 100 µM (inactive)
SNB-19
  GI50: > 100 µM (inactive)
NCI/ADR-RES
  GI50: > 100 µM (inactive)
UACC-257
  GI50: > 100 µM (inactive)
T47D
  GI50: > 100 µM (inactive)
CCRF-CEM
  GI50: > 100 µM (inactive)
U-251
  GI50: > 100 µM (inactive)
HOP-92
  GI50: > 100 µM (inactive)
LOX IMVI
  GI50: > 100 µM (inactive)
HCT-116
  GI50: > 100 µM (inactive)
KM12
  GI50: > 100 µM (inactive)
UO-31
  GI50: > 100 µM (inactive)
HCT-15
  GI50: > 100 µM
OVCAR-5
  GI50: > 100 µM (inactive)
SK-MEL-5
  GI50: > 100 µM (inactive)
RXF 393
  GI50: > 100 µM (inactive)
DU-145
  GI50: > 100 µM (inactive)
PC-3
  GI50: > 100 µM (inactive)
MDA-MB-435
  GI50: > 100 µM (inactive)
MDA-N
  GI50: > 100 µM (inactive)
K562
  GI50: > 100 µM (inactive)
SK-OV-3
  GI50: > 100 µM (inactive)
NCI-H226
  GI50: > 100 µM (inactive)
CAKI-1
  GI50: > 100 µM (inactive)
TK-10
  GI50: > 100 µM (inactive)
SF-539
  GI50: > 100 µM (inactive)
SF-295
  GI50: > 100 µM (inactive)
SNB-75
  GI50: > 100 µM (inactive)
OVCAR-8
  GI50: > 100 µM (inactive)
RPMI-8226
  GI50: > 100 µM (inactive)
SK-MEL-2
  GI50: > 100 µM (inactive)
M14
  GI50: > 100 µM (inactive)
HL-60
  GI50: > 100 µM (inactive)
786-0
  GI50: > 100 µM (inactive)
COLO 205
  GI50: > 100 µM (inactive)
SK-MEL-28
  GI50: > 100 µM (inactive)
SW-620
  GI50: > 100 µM (inactive)
HOP-62
  GI50: > 100 µM (inactive)
ACHN
  GI50: > 100 µM (inactive)
A549
  GI50: > 100 µM (inactive)
MDA-MB-231
  GI50: > 100 µM (inactive)
UACC-62
  GI50: > 100 µM (inactive)

## COc1ccc(-c2oc3ccccc3c(=O)c2O)cc1OC [3-HYDROXY-3',4'-DIMETHOXYFLAVONE]
HT-29
  GI50: > 100 µM (inactive)
MCF7
  GI50: > 100 µM (inactive)
Malme-3M
  GI50: > 100 µM (inactive)
OVCAR-3
  GI50: 47.5 µM (inactive)
A498
  GI50: 6.92 µM (inactive)
IGROV-1
  GI50: 14.3 µM (inactive)
NCI-H522
  GI50: 4.63 µM (inactive)
EKVX
  GI50: > 100 µM (inactive)
SNB-19
  GI50: 29 µM (inactive)
NCI/ADR-RES
  GI50: 3.77 µM (inactive)
UACC-257
  GI50: > 100 µM (inactive)
T47D
  GI50: 99.5 µM (inactive)
CCRF-CEM
  GI50: 3.81 µM (inactive)
U-251
  GI50: 4.92 µM (inactive)
LOX IMVI
  GI50: 9.95 µM (inactive)
HCT-116
  GI50: > 100 µM (inactive)
UO-31
  GI50: > 100 µM (inactive)
HCT-15
  GI50: > 100 µM
OVCAR-5
  GI50: > 100 µM (inactive)
SK-MEL-5
  GI50: > 100 µM (inactive)
DU-145
  GI50: 7.16 µM (inactive)
PC-3
  GI50: > 100 µM (inactive)
MDA-MB-435
  GI50: > 100 µM (inactive)
MDA-N
  GI50: > 100 µM (inactive)
K562
  GI50: > 100 µM (inactive)
SK-OV-3
  GI50: 4.81 µM (inactive)
CAKI-1
  GI50: 55.2 µM (inactive)
TK-10
  GI50: 12.3 µM (inactive)
SF-295
  GI50: 17.4 µM (inactive)
SF-268
  GI50: 7.5 µM (inactive)
M14
  GI50: > 100 µM (inactive)
COLO 205
  GI50: > 100 µM (inactive)
SK-MEL-28
  GI50: 25.3 µM (inactive)
SW-620
  GI50: > 100 µM (inactive)
HOP-62
  GI50: 11.2 µM (inactive)
ACHN
  GI50: 10.6 µM (inactive)
NCI-H460
  GI50: 4.69 µM (inactive)
A549
  GI50: > 100 µM (inactive)
MDA-MB-231
  GI50: > 100 µM (inactive)
UACC-62
  GI50: 5.22 µM (inactive)
